In brackets after ≈: the same amount, converted by molar mass.

This test concerns U-46619-induced platelet aggregation. Briefly: U-46619-induced platelet aggregation-inhibiting activity (in vitro). Format: cell-based. Conditions: human platelet-rich plasma, 4×10^5 cells/mm^3, U-46619 solution (0.2 μg/ml), 37° C., Born's method. As to the method: The bottom layer was further centrifuged to give platelet-poor plasma ("PPP") as the supernatant. PRP was diluted with PPP so that the platelet count was 4×10^5 cells/mm^3. 25 μl of a test compound solution was added to 200 μl of said diluted PRP.
Regarding `O=C([O-])Cc1ccc2c(c1)CCC(NS(=O)(=O)c1ccc(Cl)cc1)C2.[Na+]` (stereo not drawn) [Compound No. 2, Sodium 6(4-chlorophenyl)sulfonylamino-5,6,7,8-tetrahydronaphthalene-2-acetate], the half-inhibitory concentration (IC50) was found to be 0.06 µg/mL. As to `Cc1ccc(S(=O)(=O)NC2CCc3cc(CC(=O)NCCC(=O)O)ccc3C2)cc1` (stereo not drawn) [Compound No. 1], the IC50 was 0.2 µg/mL (≈ 0.465 µM).

`O=C(O)CCCNC(=O)Cc1ccc2c(c1)CCC(NS(=O)(=O)c1ccc(Cl)cc1)C2` (stereo not drawn) [Compound No. 3] yielded a 50% inhibitory concentration (IC50) of 0.7 µg/mL (≈ 1.51 µM). Against the preceding molecule, the IC50 is about 3.5-fold higher.
